The values below come from patent US10865194B2, “Therapeutically active bicyclic-sulphonamides and pharmaceutical compositions” (FONDAZIONE ISTITUTO ITALIANO DI TECNOLOGIA, priority 2017, dated 2020).

This assay concerns the target T1, human NAAA (Homo sapiens, UniProt Q02083).
T1 construct: expressed in transfected cells; host or cells: HEK-293 (stably transfected, G418 selection); enzyme-enriched lysate
T1 sequence (Q02083 126-359 limits assumed): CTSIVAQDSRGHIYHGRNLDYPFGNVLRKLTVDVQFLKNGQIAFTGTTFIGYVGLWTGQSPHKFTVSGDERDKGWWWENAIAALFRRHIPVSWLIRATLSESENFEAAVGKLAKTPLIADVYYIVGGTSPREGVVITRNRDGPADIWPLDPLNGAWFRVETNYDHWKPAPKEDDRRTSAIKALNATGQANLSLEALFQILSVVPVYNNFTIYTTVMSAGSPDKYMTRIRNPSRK
T1 sequence (Q02083 29-125 limits assumed): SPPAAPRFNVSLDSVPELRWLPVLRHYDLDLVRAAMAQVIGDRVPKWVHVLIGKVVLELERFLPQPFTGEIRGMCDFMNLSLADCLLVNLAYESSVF
Put plainly: In vitro human NAAA fluorogenic assay. Particulars: enzyme-enriched lysate of HEK-293 cells stably transfected with human NAAA; read-out: Activity h-NAAA Fluorogenic assay. The format is biochemical. On the procedure:
Human recombinant proteins were obtained from HEK-293 stable overexpressing NAAA cell lines. Cells were grown in Dulbecco's modified Eagle medium (DMEM) containing 10% FBS, 1% penicillin/streptomycin, 1% glutamine and 500 μg/mL G418. To obtain membrane preparation cells were scraped off with cold phosphate-buffered saline (PBS) and collected by centrifugation (300×g, 7 min, 4° C.). Cell pellet were stored at −80° C. until protein preparation.
In Vitro Human NAAA Assay
Preparation of Enzyme-Enriched Lysate (h-NAAA).
HEK-293 cells stably transfected with the human NAAA coding sequences were used as enzyme source. Cell pellets were suspended in 20 mM Tris HCl (pH 7.4) with 0.32 M sucrose, sonicated and centrifuged at 800×g for 30 min at 4° C. Supernatants were then ultracentrifuged at 12,000×g for 30 min at 4° C. Pellets were re-suspended in PBS buffer (pH 7.4) and subjected to three freeze-thaw cycles at −80° C. The suspension was finally ultracentrifuged at 105,000×g for 1 h at 4° C., supematants were collected, protein concentration was measured and samples aliquoted and stored at −80° C. until use.
The results are summarized in Table 3 as follows, wherein +: IC50>2 μM; ++: 1.0 μM<IC50<2 μM; +++: IC50<1 μM: […]
For the molecule `Cc1n[nH]c(C)c1S(=O)(=O)N1C2CCC1CC(Oc1ccccc1)C2` [Example 01, (1R,3s,5S)-8-[(3,5-Dimethyl-1H-pyrazol-4-yl)sulfonyl]-3-phenoxy-8-azabicyclo[3.2.1]octane], the IC50 is below 1000 nM.

For `Cc1n[nH]c(C)c1S(=O)(=O)N1C2CCC1CC(Oc1ccccc1)C2` [Example 02, (1R,3r,5S)-8-[(3,5-Dimethyl-1H-pyrazol-4-yl)sulfonyl]-3-phenoxy-8-azabicyclo[3.2.1]octane], the IC50 was below 1000 nM.

In the case of `Cc1cccc(OC2CC3CCC(C2)N3S(=O)(=O)c2c(C)n[nH]c2C)c1` [Example 04, (1R,3r,5S)-3-(3-Methylphenoxy)-8-[(3,5-dimethyl-1H-pyrazol-4-yl)sulfonyl]-8-azabicyclo[3.2.1]octane], the IC50 was below 1000 nM.

Take `Cc1cccc(OC2CC3CCC(C2)N3S(=O)(=O)c2c(C)n[nH]c2C)c1` [Example 05, (1R,3s,5S)-3-(3-Methylphenoxy)-8-[(3,5-dimethyl-1H-pyrazol-4-yl)sulfonyl]-8-azabicyclo[3.2.1]octane]: the IC50 is above 2000 nM.

For `Cc1n[nH]c(C)c1S(=O)(=O)N1C2CCC1CC(Oc1ccc(-c3ccccc3)cc1)C2` [Example 06, (1R,3r,5S)-3-(4-phenylphenoxy)-8-[(3,5-dimethyl-1H-pyrazol-4-yl)sulfonyl]-8-azabicyclo[3.2.1]octane], the IC50 was 1000 to 2000 nM.

As to `Cc1ccc(OC2CC3CCC(C2)N3S(=O)(=O)c2c(C)n[nH]c2C)cc1` [Example 07, (1R,3r,5S)-3-(4-methylphenoxy)-8-[(3,5-dimethyl-1H-pyrazol-4-yl)sulfonyl]-8-azabicyclo[3.2.1]octane], the IC50 was below 1000 nM.

As to `Cc1ccc(OC2CC3CCC(C2)N3S(=O)(=O)c2c(C)n[nH]c2C)cc1` [Example 10, (1R,3s,5S)-3-(4-methylphenoxy)-8-[(3,5-dimethyl-1H-pyrazol-4-yl)sulfonyl]-8-azabicyclo[3.2.1]octane], the IC50 is above 2000 nM.

Turning to `Cc1ccccc1OC1CC2CCC(C1)N2S(=O)(=O)c1c(C)n[nH]c1C` [Example 11, (1R,3s,5S)-3-(2-methylphenoxy)-8-[(3,5-dimethyl-1H-pyrazol-4-yl)sulfonyl]-8-azabicyclo[3.2.1]octane], the IC50 was above 2000 nM.

Consider `Cc1ccccc1OC1CC2CCC(C1)N2S(=O)(=O)c1c(C)n[nH]c1C` [Example 12, (1R,3r,5S)-3-(2-methylphenoxy)-8-[(3,5-dimethyl-1H-pyrazol-4-yl)sulfonyl]-8-azabicyclo[3.2.1]octane], for which the IC50 is below 1000 nM.

Take `Cc1n[nH]c(C)c1S(=O)(=O)N1C2CCC1CC(Oc1cnccn1)C2` [Example 13, (1R,3r,5S)-8-[(3,5-Dimethyl-1H-pyrazol-4-yl)sulfonyl]-3-pyrazin-2-yloxy-8-azabicyclo[3.2.1]octane]: the IC50 is below 1000 nM.

`CCCCc1ccc(OC2CC3CCC(C2)N3S(=O)(=O)c2c(C)nn(C)c2C)cc1` [Example 14, (1R,3r,5S)-3-(4-Butylphenoxy)-8-(1,3,5-trimethylpyrazol-4-yl)sulfonyl-8-azabicyclo[3.2.1]octane]: the IC50 is below 1000 nM.

As for `CCCCc1ccc(OC2CC3CCC(C2)N3S(=O)(=O)c2cc(C)sc2C)cc1` [Example 16, (1R,3r,5S)-3-(4-Butylphenoxy)-8-[(2,5-dimethyl-3-thienyl)sulfonyl]-8-azabicyclo[3.2.1]octane], the IC50 was above 2000 nM.

For `CCc1ccc(OC2CC3CCC(C2)N3S(=O)(=O)c2c(C)n[nH]c2C)cc1` [Example 17, (1R,3r,5S)-3-(4-Ethylphenoxy)-8-[(3,5-dimethyl-1H-pyrazol-4-yl)sulfonyl]-8-azabicyclo[3.2.1]octane], the IC50 was below 1000 nM.

For the molecule `Cc1n[nH]c(C)c1S(=O)(=O)N1C2CCC1CC(Oc1ccc(C(C)C)cc1)C2` [Example 18, (1R,3r,5S)-3-(4-Isopropylphenoxy)-8-[(3,5-dimethyl-1H-pyrazol-4-yl)sulfonyl]-8-azabicyclo[3.2.1]octane], the IC50 was below 1000 nM.

With `CCCCc1ccc(OC2CC3CCC(C2)N3S(=O)(=O)c2c(C(C)C)n[nH]c2C)cc1` [Example 20, (1R,3r,5S)-3-(4-Butylphenoxy)-8-[(3-isopropyl-5-methyl-1H-pyrazol-4-yl)sulfonyl]-8-azabicyclo[3.2.1]octane], the IC50 was below 1000 nM.

`Cc1ccc(OC2CC3CCC(C2)N3S(=O)(=O)c2c(C)n[nH]c2C)c(F)c1` [Example 21, (1R,3r,5S)-3-(2-Fluoro-4-methylphenoxy)-8-[(3,5-dimethyl-1H-pyrazol-4-yl)sulfonyl]-8-azabicyclo[3.2.1]octane]: the IC50 is below 1000 nM.

For the molecule `Cc1n[nH]c(C)c1S(=O)(=O)N1C2CCC1CC(Oc1ccc3ccccc3n1)C2` [Example 22, (1R,3r,5S)-8-[(3,5-Dimethyl-1H-pyrazol-4-yl)sulfonyl]-3-(2-quinolyloxy)-8-azabicyclo[3.2.1]octane], the IC50 was above 2000 nM.

For the molecule `Cc1n[nH]c(C)c1S(=O)(=O)N1C2CCC1CC(Oc1nc3ccccc3o1)C2` [Example 23, (1R,3r,5S)-8-[(3,5-Dimethyl-1H-pyrazol-4-yl)sulfonyl]-3-(2-benzoxazoloxy)-8-azabicyclo[3.2.1]octane], the IC50 was below 1000 nM.

With `COc1ccc(O[C@H]2C[C@H]3CC[C@@H](C2)N3S(=O)(=O)c2c(C)n[nH]c2C)cc1` [Example 24, (1R,3r,5S)-3-(4-Methoxyphenoxy)-8-[(3,5-dimethyl-1H-pyrazol-4-yl)sulfonyl]-8-azabicyclo[3.2.1]octane], the IC50 is below 1000 nM.

On to `Cc1n[nH]c(C)c1S(=O)(=O)N1C2CCC1CC(Oc1ccccn1)C2` [Example 25, (1R,3r,5S)-8-[(3,5-Dimethyl-1H-pyrazol-4-yl)sulfonyl]-3-(2-pyridiloxy)-8-azabicyclo[3.2.1]octane], for which the IC50 was below 1000 nM.

Take `CCCOc1ccc(OC2CC3CCC(C2)N3S(=O)(=O)c2c(C)n[nH]c2C)cc1` [Example 26, (1R,3r,5S)-3-(4-Propoxyphenoxy)-8-[(3,5-dimethyl-1H-pyrazol-4-yl)sulfonyl]-8-azabicyclo[3.2.1]octane]: the IC50 is below 1000 nM.

With `Cc1ccc(OC2CC3CCC(C2)N3S(=O)(=O)c2c(C)n[nH]c2C)nc1` [Example 27, (1R,3r,5S)-8-[(3,5-Dimethyl-1H-pyrazol-4-yl)sulfonyl]-3-[(5-methyl-2-pyridil)oxy]-8-azabicyclo[3.2.1]octane], the IC50 was below 1000 nM.

In the case of `Cc1n[nH]c(C)c1S(=O)(=O)N1C2CCC1CC(Oc1nc3c(C)cccc3o1)C2` [Example 28, (1R,3r,5S)-8-[(3,5-Dimethyl-1H-pyrazol-4-yl)sulfonyl]-3-(2-(4-methyl)-benzoxazoloxy)-8-azabicyclo[3.2.1]octane], the IC50 is above 2000 nM.

With `Cc1n[nH]c(C)c1S(=O)(=O)N1C2CCC1CC(Oc1ccc(C(F)(F)F)cc1)C2` [Example 29, (1R,3r,5S)-3-(4-Trifluoromethyl-phenoxy)-8-[(3,5-dimethyl-1H-pyrazol-4-yl)sulfonyl]-8-azabicyclo[3.2.1]octane], the IC50 is below 1000 nM.

For `Cc1n[nH]c(C)c1S(=O)(=O)N1C2CCC1CC(Oc1ccc(C=O)cc1)C2` [Example 30, (1R,3r,5S)-3-(4-Formyl-phenoxy)-8-[(3,5-dimethyl-1H-pyrazol-4-yl)sulfonyl]-8-azabicyclo[3.2.1]octane], the IC50 was below 1000 nM.

As to `Cc1n[nH]c(C)c1S(=O)(=O)N1C2CCC1CC(Oc1ccc(CO)cc1)C2` [Example 31, (1R,3r,5S)-3-(4-Hydroxymethyl-phenoxy)-8-[(3,5-dimethyl-1H-pyrazol-4-yl)sulfonyl]-8-azabicyclo[3.2.1]octane], the IC50 is below 1000 nM.

As for `CCN(CC)Cc1ccc(OC2CC3CCC(C2)N3S(=O)(=O)c2c(C)n[nH]c2C)cc1` [Example 32, (1R,3r,5S)-3-[4-Diethylaminomethyl-phenoxy]-8-[(3,5-dimethyl-1H-pyrazol-4-yl)sulfonyl]-8-azabicyclo[3.2.1]octane], the IC50 is above 2000 nM.

On to `Cc1n[nH]c(C)c1S(=O)(=O)N1C2CCC1CC(Oc1ccc(CCC(C)C)cc1)C2` [Example 33, (1R,3r,5S)-3-[4-Isopentyl-phenoxy]-8-[(3,5-dimethyl-1H-pyrazol-4-yl)sulfonyl]-8-azabicyclo[3.2.1]octane], for which the IC50 is below 1000 nM.

Take `Cc1n[nH]c(C)c1S(=O)(=O)N1C2CCC1CC(Oc1cnc3ccccc3n1)C2` [Example 34, (1R,3r,5S)-8-[(3,5-Dimethyl-1H-pyrazol-4-yl)sulfonyl]-3-(2-quinoxalyloxy)-8-azabicyclo[3.2.1]octane]: the IC50 is above 2000 nM.

For the molecule `CCOCc1ccc(OC2CC3CCC(C2)N3S(=O)(=O)c2c(C)n[nH]c2C)cc1` [Example 35, (1R,3r,5S)-3-(4-Ethoxymethyl-phenoxy)-8-[(3,5-dimethyl-1H-pyrazol-4-yl)sulfonyl]-8-azabicyclo[3.2.1]octane], the IC50 was below 1000 nM.
